{"source": "ChEMBL document CHEMBL5653615", "about": "(J Biol Chem, 2013)", "key": {"[1]": {"molecular_target": "T1, Serine/threonine-protein kinase Sgk2 (Homo sapiens) (UniProt Q9HBY8)", "T1 sequence (whole entry)": "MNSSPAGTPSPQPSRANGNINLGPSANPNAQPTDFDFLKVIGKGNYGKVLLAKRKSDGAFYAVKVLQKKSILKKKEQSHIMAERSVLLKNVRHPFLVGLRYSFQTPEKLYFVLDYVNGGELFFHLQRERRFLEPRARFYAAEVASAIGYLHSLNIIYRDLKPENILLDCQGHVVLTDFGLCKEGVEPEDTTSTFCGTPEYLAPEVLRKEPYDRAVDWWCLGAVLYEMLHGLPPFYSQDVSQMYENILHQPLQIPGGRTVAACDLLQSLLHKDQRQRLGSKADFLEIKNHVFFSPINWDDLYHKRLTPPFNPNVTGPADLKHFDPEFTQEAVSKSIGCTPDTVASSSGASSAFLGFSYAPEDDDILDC", "experiment": "Inhibition of human SGK2 at 500 nM by HotSpot assay relative to control"}, "[2]": {"molecular_target": "T2, Tyrosine-protein kinase receptor TYRO3 (Homo sapiens) (UniProt Q06418)", "T2 sequence (whole entry)": "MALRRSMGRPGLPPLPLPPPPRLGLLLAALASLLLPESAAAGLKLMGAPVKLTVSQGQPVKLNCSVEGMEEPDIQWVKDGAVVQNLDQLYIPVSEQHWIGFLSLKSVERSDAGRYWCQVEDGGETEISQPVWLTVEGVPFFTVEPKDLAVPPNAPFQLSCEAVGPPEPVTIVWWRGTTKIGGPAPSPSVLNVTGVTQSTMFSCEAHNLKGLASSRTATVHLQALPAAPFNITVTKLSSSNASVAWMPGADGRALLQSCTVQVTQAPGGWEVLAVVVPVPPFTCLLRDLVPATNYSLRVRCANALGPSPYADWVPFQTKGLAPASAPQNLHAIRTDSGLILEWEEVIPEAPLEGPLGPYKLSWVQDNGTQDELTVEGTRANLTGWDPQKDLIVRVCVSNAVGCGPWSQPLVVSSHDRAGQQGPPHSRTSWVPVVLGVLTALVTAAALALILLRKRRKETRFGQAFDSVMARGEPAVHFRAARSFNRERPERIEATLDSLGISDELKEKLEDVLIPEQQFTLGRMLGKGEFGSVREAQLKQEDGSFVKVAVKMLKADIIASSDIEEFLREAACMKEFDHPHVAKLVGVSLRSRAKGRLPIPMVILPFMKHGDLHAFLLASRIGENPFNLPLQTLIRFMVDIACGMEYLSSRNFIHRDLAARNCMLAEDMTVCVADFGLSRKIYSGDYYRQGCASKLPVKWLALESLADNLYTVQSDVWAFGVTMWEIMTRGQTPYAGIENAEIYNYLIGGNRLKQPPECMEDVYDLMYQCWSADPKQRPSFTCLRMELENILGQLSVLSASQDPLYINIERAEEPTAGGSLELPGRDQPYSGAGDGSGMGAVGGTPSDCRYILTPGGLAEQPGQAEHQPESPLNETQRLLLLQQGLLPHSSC", "experiment": "Inhibition of human SKY at 500 nM by HotSpot assay relative to control"}, "[3]": {"molecular_target": "T3, Serine/threonine-protein kinase haspin (Homo sapiens) (UniProt Q8TF76)", "T3 sequence (whole entry)": "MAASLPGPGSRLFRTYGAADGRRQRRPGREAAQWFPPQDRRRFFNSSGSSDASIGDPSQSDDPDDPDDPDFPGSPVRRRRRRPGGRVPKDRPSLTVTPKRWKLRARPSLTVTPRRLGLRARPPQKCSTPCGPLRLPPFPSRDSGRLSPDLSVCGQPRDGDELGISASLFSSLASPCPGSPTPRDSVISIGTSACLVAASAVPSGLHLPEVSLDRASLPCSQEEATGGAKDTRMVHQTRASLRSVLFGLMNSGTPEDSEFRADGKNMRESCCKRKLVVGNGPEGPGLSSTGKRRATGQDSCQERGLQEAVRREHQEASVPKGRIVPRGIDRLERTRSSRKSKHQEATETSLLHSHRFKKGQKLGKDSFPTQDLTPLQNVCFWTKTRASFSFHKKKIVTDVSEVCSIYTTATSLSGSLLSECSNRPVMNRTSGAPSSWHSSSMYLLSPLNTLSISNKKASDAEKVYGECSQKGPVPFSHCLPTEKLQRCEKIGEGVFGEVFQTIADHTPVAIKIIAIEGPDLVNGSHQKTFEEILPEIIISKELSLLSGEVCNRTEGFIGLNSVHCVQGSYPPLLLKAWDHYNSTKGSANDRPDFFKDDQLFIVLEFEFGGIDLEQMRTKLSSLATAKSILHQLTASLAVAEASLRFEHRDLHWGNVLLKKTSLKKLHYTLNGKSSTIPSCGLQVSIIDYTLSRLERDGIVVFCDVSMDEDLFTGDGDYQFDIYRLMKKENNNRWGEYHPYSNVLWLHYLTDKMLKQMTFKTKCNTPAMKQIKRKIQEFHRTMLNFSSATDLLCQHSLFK", "experiment": "Inhibition of human Haspin at 500 nM by HotSpot assay relative to control"}, "[4]": {"molecular_target": "Mitogen-activated protein kinase kinase kinase 7 (Homo sapiens) (UniProt O43318)", "sequence (O43318 whole entry, looked up)": "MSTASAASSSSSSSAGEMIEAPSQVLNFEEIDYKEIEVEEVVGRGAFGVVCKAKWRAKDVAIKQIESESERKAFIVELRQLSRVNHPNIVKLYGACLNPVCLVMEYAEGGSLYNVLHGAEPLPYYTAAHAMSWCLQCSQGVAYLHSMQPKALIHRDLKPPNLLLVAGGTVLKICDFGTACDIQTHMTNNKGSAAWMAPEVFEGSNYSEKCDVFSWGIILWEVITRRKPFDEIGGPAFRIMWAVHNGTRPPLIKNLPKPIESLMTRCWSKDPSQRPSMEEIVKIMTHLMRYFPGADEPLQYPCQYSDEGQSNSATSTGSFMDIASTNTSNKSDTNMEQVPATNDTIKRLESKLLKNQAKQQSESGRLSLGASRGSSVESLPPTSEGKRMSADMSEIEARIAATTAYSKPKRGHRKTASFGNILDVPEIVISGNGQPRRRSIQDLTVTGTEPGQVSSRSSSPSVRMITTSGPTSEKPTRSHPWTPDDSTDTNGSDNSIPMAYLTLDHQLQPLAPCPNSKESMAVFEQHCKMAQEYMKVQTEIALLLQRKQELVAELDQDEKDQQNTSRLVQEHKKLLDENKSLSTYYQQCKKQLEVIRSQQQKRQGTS", "experiment": "Inhibition of human TAK1 at 500 nM by HotSpot assay relative to control"}}}
{"smiles": "Nc1n[nH]c2nnc(-c3c(-c4ccccc4)nn4ccccc34)cc12", "values": [{"measurement": "inhibition", "setting": "[1]", "value": 1.2, "unit": "%"}, {"measurement": "inhibition", "setting": "[2]", "value": 2.41, "unit": "%"}, {"measurement": "inhibition", "setting": "[3]", "value": 2.91, "unit": "%"}, {"measurement": "inhibition", "setting": "[4]", "value": -1.47, "unit": "%"}]}
{"smiles": "Oc1n[nH]c2nnc(-c3c(-c4ccccc4)nn4ccccc34)cc12", "values": [{"measurement": "inhibition", "setting": "[1]", "value": 3.78, "unit": "%"}, {"measurement": "inhibition", "setting": "[2]", "value": 10.1, "unit": "%"}, {"measurement": "inhibition", "setting": "[3]", "value": 11.6, "unit": "%"}, {"measurement": "inhibition", "setting": "[4]", "value": -3.14, "unit": "%"}]}
